Source: ChEMBL document CHEMBL1821607, “N-Arylalkyl-2-azaadamantanes as cage-expanded polycarbocyclic sigma (σ) receptor ligands” (Bioorg Med Chem Lett, 2011)
pKi: −log10 of the molar value.

Assays:
[1] = Inhibition of GABAA receptor at 10 uM by NIMH PDSP
Histamine H1 receptor = Histamine H1 receptor (Homo sapiens, UniProt P35367); assay: Inhibition of H1 receptor by NIMH PDSP
[2] = target: T1, Muscarinic acetylcholine receptor M1 (Homo sapiens) (UniProt P11229); assay: Inhibition of M1 muscarinic receptor at 10 uM by NIMH PDSP
T1 sequence (whole entry): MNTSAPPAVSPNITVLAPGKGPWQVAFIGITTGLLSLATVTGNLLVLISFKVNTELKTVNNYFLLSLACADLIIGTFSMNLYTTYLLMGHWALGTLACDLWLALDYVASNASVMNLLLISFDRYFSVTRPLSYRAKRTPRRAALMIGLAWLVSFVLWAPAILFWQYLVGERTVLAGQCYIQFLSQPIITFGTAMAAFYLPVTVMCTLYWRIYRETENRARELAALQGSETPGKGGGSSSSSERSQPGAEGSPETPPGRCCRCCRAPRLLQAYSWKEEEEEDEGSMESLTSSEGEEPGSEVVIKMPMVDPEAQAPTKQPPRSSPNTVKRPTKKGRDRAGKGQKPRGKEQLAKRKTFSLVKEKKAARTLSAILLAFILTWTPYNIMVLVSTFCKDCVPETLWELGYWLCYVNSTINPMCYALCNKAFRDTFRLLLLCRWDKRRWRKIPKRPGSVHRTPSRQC

[3] = target: Alpha-2A adrenergic receptor (Homo sapiens, UniProt P08913); assay: Inhibition of alpha-2A adrenergic receptor by NIMH PDSP
[4] = target: T2, Kappa-type opioid receptor (Homo sapiens, UniProt P41145); assay: Inhibition of kappa opioid receptor by NIMH PDSP
[5] = target: 5-hydroxytryptamine receptor 6 (Homo sapiens) (UniProt P50406); assay: Inhibition of 5-HT6 receptor at 10 uM by NIMH PDSP
[6] = target: Muscarinic acetylcholine receptor M4 (Homo sapiens) (UniProt P08173); assay: Inhibition of M4 muscarinic receptor at 10 uM by NIMH PDSP
[7] = target: Sodium-dependent noradrenaline transporter (Homo sapiens, UniProt P23975); assay: Inhibition of NET transporter at 10 uM by NIMH PDSP
[8] = target: Alpha-2B adrenergic receptor (Homo sapiens, UniProt P18089); assay: Inhibition of alpha-2B adrenergic receptor by NIMH PDSP
[9] = Selectivity ratio of Ki for sigma 1 receptor in guinea pig brain to Ki for sigma 2 receptor in rat liver
[10] = target: T3, 5-hydroxytryptamine receptor 1A (Homo sapiens) (UniProt P08908); assay: Inhibition of 5-HT1A receptor at 10 uM by NIMH PDSP
T3 sequence (whole entry): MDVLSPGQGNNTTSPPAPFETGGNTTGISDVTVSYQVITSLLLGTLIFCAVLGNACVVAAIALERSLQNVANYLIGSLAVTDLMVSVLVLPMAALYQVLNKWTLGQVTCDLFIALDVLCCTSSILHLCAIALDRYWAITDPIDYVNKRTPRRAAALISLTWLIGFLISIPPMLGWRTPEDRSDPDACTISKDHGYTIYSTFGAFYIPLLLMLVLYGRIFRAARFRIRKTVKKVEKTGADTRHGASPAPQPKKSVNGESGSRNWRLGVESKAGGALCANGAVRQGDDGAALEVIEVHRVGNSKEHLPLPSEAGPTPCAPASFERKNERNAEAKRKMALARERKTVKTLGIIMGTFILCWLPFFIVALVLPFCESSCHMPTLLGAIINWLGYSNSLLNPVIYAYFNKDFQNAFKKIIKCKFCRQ

[11] = target: D(2) dopamine receptor (Homo sapiens) (UniProt P14416); assay: Inhibition of D2 dopamine receptor at 10 uM by NIMH PDSP
[12] = target: Muscarinic acetylcholine receptor M2 (Homo sapiens) (UniProt P08172); assay: Inhibition of M2 muscarinic receptor at 10 uM by NIMH PDSP
[13] = target: Muscarinic acetylcholine receptor M5 (Homo sapiens) (UniProt P08912); assay: Inhibition of M5 muscarinic receptor at 10 uM by NIMH PDSP
[14] = target: Muscarinic acetylcholine receptor M5 (Homo sapiens, UniProt P08912); assay: Inhibition of M5 muscarinic receptor by NIMH PDSP
[15] = target: Muscarinic acetylcholine receptor M2 (Homo sapiens, UniProt P08172); assay: Inhibition of M2 muscarinic receptor by NIMH PDSP
[16] = target: T2, Kappa-type opioid receptor; assay: Inhibition of kappa opioid receptor at 10 uM by NIMH PDSP
[17] = target: Sodium-dependent dopamine transporter (Homo sapiens) (UniProt Q01959); assay: Inhibition of DAT transporter at 10 uM by NIMH PDSP
[18] = target: Muscarinic acetylcholine receptor M4 (Homo sapiens, UniProt P08173); assay: Inhibition of M4 muscarinic receptor by NIMH PDSP
[19] = target: T4, Alpha-2B adrenergic receptor (Homo sapiens) (UniProt P18089); assay: Inhibition of alpha-2B adrenergic receptor at 10 uM by NIMH PDSP
T4 sequence (whole entry): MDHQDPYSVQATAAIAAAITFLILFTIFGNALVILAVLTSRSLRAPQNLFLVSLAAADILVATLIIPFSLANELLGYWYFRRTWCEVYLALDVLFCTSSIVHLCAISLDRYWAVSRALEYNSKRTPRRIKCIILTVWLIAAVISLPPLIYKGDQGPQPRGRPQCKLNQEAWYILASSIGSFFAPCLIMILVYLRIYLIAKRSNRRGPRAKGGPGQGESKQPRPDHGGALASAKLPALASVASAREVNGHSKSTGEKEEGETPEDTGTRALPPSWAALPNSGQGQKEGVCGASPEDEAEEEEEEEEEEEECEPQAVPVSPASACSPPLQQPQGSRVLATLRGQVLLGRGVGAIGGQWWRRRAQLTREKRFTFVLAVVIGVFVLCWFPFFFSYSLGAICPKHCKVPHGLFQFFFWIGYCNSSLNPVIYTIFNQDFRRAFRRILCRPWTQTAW

[20] = Selectivity ratio of Ki for sigma 2 receptor in rat liver to Ki for sigma 1 receptor in guinea pig brain
[21] = target: Alpha-1A adrenergic receptor (Homo sapiens, UniProt P35348); assay: Inhibition of alpha-1A adrenergic receptor by NIMH PDSP
D(1A) dopamine receptor = D(1A) dopamine receptor (Homo sapiens, UniProt P21728); assay: Inhibition of D1 dopamine receptor by NIMH PDSP
Sequence of D(1A) dopamine receptor (P21728 whole entry): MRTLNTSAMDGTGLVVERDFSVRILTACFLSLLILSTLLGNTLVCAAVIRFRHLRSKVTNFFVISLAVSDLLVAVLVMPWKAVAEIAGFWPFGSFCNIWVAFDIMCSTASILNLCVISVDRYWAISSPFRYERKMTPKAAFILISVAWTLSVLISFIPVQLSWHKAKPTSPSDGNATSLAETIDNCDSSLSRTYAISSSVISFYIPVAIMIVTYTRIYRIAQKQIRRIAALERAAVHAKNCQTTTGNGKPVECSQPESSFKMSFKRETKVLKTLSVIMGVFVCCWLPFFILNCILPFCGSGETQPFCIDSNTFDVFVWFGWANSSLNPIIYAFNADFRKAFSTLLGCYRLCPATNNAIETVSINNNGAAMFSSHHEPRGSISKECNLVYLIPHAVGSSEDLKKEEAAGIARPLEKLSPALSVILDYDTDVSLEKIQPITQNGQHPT

T2 sequence (P41145 whole entry): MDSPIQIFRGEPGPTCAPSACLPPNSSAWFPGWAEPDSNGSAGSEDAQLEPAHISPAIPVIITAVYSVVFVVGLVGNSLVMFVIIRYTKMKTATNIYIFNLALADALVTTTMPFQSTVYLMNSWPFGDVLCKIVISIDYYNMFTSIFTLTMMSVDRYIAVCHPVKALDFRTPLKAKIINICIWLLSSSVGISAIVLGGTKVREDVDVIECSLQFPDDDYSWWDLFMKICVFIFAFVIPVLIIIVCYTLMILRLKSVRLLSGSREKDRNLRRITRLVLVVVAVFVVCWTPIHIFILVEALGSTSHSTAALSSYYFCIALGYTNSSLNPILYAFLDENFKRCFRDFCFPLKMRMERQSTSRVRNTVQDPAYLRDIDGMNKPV
Sequence of Histamine H1 receptor (P35367 whole entry): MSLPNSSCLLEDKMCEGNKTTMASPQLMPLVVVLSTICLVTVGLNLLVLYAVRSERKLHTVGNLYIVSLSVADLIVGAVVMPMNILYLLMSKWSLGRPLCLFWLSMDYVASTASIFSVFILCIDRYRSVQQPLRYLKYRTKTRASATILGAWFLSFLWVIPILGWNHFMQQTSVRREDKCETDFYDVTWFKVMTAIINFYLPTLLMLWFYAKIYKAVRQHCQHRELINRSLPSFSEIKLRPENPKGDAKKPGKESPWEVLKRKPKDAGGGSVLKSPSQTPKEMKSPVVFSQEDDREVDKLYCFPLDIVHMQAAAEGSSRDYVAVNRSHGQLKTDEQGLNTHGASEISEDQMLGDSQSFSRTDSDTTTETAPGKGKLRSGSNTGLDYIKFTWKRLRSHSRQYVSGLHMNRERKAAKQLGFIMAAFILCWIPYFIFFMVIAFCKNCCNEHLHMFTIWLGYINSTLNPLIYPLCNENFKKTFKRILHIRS
Sequence of 5-hydroxytryptamine receptor 6 (Homo sapiens) (P50406 whole entry): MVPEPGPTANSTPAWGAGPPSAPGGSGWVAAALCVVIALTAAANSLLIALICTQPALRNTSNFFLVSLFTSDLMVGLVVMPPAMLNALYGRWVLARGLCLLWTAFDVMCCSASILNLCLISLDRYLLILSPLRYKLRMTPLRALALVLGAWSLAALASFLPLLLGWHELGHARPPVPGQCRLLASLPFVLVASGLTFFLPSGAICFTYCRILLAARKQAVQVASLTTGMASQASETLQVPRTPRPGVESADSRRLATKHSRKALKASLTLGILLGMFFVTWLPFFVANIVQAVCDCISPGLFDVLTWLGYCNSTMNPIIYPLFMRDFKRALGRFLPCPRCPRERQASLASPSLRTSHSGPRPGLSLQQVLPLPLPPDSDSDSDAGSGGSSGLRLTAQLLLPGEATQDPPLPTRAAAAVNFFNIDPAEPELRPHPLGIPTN
Sequence of D(2) dopamine receptor (Homo sapiens) (P14416 whole entry): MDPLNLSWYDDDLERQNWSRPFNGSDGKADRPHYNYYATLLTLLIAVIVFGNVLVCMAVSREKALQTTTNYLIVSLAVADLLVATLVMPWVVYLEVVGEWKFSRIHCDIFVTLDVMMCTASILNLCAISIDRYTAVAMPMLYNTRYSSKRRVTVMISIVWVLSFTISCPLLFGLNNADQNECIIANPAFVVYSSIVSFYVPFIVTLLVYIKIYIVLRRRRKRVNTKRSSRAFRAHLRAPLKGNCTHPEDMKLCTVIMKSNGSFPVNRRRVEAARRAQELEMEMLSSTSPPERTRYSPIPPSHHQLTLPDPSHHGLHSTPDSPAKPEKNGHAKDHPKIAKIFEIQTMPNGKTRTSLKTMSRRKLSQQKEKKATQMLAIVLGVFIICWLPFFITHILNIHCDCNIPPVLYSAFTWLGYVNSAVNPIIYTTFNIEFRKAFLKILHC
Sequence of Muscarinic acetylcholine receptor M2 (Homo sapiens) (P08172 whole entry): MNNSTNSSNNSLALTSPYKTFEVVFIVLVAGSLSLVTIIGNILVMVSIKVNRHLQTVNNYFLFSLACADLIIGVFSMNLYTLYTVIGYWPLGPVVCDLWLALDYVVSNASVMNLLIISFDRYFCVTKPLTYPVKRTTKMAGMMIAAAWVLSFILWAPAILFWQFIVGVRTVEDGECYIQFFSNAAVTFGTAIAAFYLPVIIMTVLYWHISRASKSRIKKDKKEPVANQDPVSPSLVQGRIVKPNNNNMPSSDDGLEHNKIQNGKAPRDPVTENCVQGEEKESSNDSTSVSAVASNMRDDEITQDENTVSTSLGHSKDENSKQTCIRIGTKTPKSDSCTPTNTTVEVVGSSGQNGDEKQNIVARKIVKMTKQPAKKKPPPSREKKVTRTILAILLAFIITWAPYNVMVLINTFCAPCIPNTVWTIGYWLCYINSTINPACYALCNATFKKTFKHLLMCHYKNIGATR
Sequence of Muscarinic acetylcholine receptor M2 (P08172 whole entry): as above
Sequence of Muscarinic acetylcholine receptor M5 (P08912 whole entry): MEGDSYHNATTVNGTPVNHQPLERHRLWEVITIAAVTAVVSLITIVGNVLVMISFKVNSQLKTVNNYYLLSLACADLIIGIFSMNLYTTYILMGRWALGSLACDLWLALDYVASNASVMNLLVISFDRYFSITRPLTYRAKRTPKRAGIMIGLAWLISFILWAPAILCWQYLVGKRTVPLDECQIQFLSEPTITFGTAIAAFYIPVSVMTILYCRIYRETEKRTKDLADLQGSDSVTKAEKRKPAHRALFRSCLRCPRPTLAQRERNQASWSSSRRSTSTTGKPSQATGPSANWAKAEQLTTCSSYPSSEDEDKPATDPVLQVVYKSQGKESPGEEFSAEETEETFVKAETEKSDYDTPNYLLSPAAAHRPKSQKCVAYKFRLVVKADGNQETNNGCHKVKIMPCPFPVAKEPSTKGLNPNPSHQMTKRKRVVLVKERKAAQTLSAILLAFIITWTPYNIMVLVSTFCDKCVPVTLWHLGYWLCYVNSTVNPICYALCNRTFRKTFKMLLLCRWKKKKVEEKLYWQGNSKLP
Sequence of Muscarinic acetylcholine receptor M5 (Homo sapiens) (P08912 whole entry): as above
Sequence of Muscarinic acetylcholine receptor M4 (P08173 whole entry): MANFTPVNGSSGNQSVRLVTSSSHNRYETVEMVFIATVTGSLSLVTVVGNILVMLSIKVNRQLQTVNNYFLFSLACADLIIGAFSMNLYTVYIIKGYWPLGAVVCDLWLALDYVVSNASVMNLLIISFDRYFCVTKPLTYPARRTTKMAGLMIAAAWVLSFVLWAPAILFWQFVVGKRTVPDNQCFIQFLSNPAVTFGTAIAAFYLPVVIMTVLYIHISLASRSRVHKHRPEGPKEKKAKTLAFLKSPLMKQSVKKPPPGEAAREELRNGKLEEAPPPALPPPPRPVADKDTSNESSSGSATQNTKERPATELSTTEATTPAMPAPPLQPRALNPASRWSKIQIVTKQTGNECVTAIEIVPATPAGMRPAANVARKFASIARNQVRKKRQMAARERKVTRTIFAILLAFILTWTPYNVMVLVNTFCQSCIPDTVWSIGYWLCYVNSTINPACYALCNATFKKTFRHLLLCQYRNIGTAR
Sequence of Muscarinic acetylcholine receptor M4 (Homo sapiens) (P08173 whole entry): as above
Sequence of Sodium-dependent dopamine transporter (Homo sapiens) (Q01959 whole entry): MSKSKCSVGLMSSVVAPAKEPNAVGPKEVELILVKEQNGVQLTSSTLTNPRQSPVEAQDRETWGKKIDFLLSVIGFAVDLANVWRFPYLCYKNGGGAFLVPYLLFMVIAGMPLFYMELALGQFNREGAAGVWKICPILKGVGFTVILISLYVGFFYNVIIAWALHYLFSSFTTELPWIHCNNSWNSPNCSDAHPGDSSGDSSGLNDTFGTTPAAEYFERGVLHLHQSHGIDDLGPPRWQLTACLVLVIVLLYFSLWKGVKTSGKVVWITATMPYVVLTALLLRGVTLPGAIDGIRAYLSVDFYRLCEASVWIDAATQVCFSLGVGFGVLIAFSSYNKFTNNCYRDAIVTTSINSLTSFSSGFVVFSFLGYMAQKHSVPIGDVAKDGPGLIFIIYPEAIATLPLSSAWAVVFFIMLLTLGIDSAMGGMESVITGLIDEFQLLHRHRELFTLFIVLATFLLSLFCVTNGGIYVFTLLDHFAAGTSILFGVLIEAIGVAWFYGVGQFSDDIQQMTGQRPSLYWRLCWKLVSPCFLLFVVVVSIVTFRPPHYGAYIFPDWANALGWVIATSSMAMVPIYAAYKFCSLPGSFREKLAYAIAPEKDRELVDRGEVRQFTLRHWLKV
Sequence of Alpha-1A adrenergic receptor (P35348 whole entry): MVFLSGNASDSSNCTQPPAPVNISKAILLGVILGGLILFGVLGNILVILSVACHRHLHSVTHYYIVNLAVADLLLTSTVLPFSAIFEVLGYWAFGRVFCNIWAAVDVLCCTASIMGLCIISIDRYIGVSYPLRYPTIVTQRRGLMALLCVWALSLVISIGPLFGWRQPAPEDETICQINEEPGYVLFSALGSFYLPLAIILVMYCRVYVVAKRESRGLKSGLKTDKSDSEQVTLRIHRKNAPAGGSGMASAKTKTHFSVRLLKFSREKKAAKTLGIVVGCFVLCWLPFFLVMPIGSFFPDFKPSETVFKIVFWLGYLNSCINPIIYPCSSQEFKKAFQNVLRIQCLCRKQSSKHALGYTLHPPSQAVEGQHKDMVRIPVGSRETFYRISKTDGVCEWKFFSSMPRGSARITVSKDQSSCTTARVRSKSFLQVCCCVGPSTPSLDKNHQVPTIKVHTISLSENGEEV

Row | Compound | inhibition [1] | pKi (Histamine H1 receptor) | inhibition [2] | pKi [4] | inhibition [5] | inhibition [6] | Ratio Ki [9] | inhibition [10] | inhibition [11] | inhibition [12] | inhibition [13] | pKi [14] | pKi [15] | inhibition [16] | inhibition [17] | pKi [18] | inhibition [19] | Ratio Ki [20] | other results
1 | OC12CC3CC(CC(C3)N1Cc1ccccc1)C2 (racemic) | < 50% | > 5.00 | < 50% | 6.18 | < 50% | < 50% | 1.4 | < 50% | < 50% | < 50% | < 50% |  |  |  |  |  |  |  | pKi [3]: < 5.00; inhibition [7]: < 50%; pKi [8]: < 5.00
2 | c1ccc(CN2C3CC4CC(C3)CC2C4)cc1 | < 50% | > 5.00 | < 50% |  | < 50% |  |  | < 50% | < 50% |  |  | 5.18 | 5.37 | < 50% | < 50% | 5.75 | < 50% | 3.3 | 
3 | Fc1cccc(CN2C3CC4CC(C3)CC2C4)c1 | < 50% | > 5.00 | < 50% |  | < 50% |  |  | < 50% | < 50% |  |  | 5.26 | 5.45 | < 50% | < 50% | 5.87 | < 50% | 6 | pKi [21]: < 5.00; pKi (D(1A) dopamine receptor): < 5.00
4 | OC12CC3CC(CC(C3)N1Cc1cccc(F)c1)C2 (racemic) | < 50% | > 5.00 | < 50% | 5.92 | < 50% | < 50% | 1.2 | < 50% | < 50% | < 50% | < 50% |  |  |  |  |  | < 50% |  | 
